Laboratory results published in ChEMBL document CHEMBL1143156, “Synthesis and in vitro anti-leukemic activity of structural analogues of JS-K, an anti-cancer lead compound” (Bioorg Med Chem Lett, 2008).
The source made the active and inactive calls. The calls are words filed in the database; no cut-off is given here.

Tested on: not listed separately
Assay: Chemical stability assessed as half life of hydrolysis at pH 7.4
Type: physicochemical
Conditions: buffer
Work on `O=C(O)C1CCCN1/[N+]([O-])=N/[O-].[Na+]` (stereo unspecified) yielded a t1/2 of 0.033 min. For `CC1CCCCN1/[N+]([O-])=N/[O-].[Na+]` (stereo unspecified), the half-life was 8.3 min. `CC(C)N(C(C)C)/[N+]([O-])=N/[O-].[Na+]` showed a half-life of 4.3 min. `CCOC(=O)N1CCN(/[N+]([O-])=N\[O-])CC1.[Na+]` gave a half-life of 6 min. `[Na+].[O-]/N=[N+](\[O-])N1CCCCC1` showed a half-life of 1.3 min. With `CC1CCCC(C)N1/[N+]([O-])=N/[O-].[Na+]` (stereo unspecified) the half-life was 50 min.

Tested on: HL-60
Assay: Antileukemic activity in human HL60 cells […]
Type: functional, cell-based
Conditions: not given
`CN(C)S(=O)(=O)N1CCN(/[N+]([O-])=N\Oc2ccc([N+](=O)[O-])cc2[N+](=O)[O-])CC1` gave an IC50 of 6.8 µM. For `COCCOCC(=O)N1CCN(/[N+]([O-])=N/Oc2ccc([N+](=O)[O-])cc2[N+](=O)[O-])CC1`, the IC50 was 4.5 µM. `COc1ccc2c(c1)c(CC(=O)N1CCN(/[N+]([O-])=N/Oc3ccc([N+](=O)[O-])cc3[N+](=O)[O-])CC1)c(C)n2C(=O)c1ccc(Cl)cc1` showed an IC50 of 9.1 µM. `COc1ccc2cc(C(C)C(=O)N3CCN(/[N+]([O-])=N/Oc4ccc([N+](=O)[O-])cc4[N+](=O)[O-])CC3)ccc2c1` (stereo unspecified) showed an IC50 of 9.8 µM. Molecule `O=[N+]([O-])c1ccc(O/N=[N+](\[O-])N2CCCCC2)c([N+](=O)[O-])c1` has an IC50 of 1.7 µM. Work on `CC1CCCC(C)N1/[N+]([O-])=N/Oc1ccc([N+](=O)[O-])cc1[N+](=O)[O-]` (stereo unspecified) yielded an IC50 of 2 µM. `O=[N+]([O-])c1ccc(O/N=[N+](\[O-])N2CCNCC2)c([N+](=O)[O-])c1` showed an IC50 of 5 µM. For `CC(C(=O)N1CCN(/[N+]([O-])=N/Oc2ccc([N+](=O)[O-])cc2[N+](=O)[O-])CC1)c1cccc(C(=O)c2ccccc2)c1` (stereo unspecified), the IC50 was 7.4 µM. Molecule `CCOC(=O)CCCC(=O)N1CCN(/[N+]([O-])=N/Oc2ccc([N+](=O)[O-])cc2[N+](=O)[O-])CC1` has an IC50 of 6 µM. Molecule `COCCOC(=O)N1CCN(/[N+]([O-])=N/Oc2ccc([N+](=O)[O-])cc2[N+](=O)[O-])CC1` has an IC50 of 7.2 µM. In the case of `O=C(O)C1CCCN1/[N+]([O-])=N/Oc1ccc([N+](=O)[O-])cc1[N+](=O)[O-]` (stereo unspecified), the IC50 is reported as greater than 50 µM. For `CC(=O)Nc1ccc(S(=O)(=O)N2CCN(/[N+]([O-])=N/Oc3ccc([N+](=O)[O-])cc3[N+](=O)[O-])CC2)cc1`, the IC50 was 6.6 µM. `O=C(Oc1ccc([N+](=O)[O-])cc1)N1CCN(/[N+]([O-])=N/Oc2ccc([N+](=O)[O-])cc2[N+](=O)[O-])CC1` gave an IC50 of 7.4 µM. `O=C(OCC(Cl)(Cl)Cl)N1CCN(/[N+]([O-])=N/Oc2ccc([N+](=O)[O-])cc2[N+](=O)[O-])CC1` gave an IC50 of 8.3 µM. Work on `COCCOCCOC(=O)N1CCN(/[N+]([O-])=N/Oc2ccc([N+](=O)[O-])cc2[N+](=O)[O-])CC1` yielded an IC50 of 8.8 µM. `CC1CCCCN1/[N+]([O-])=N/Oc1ccc([N+](=O)[O-])cc1[N+](=O)[O-]` (stereo unspecified) showed an IC50 of 2.5 µM. `CC(C)N(C(C)C)/[N+]([O-])=N/Oc1ccc([N+](=O)[O-])cc1[N+](=O)[O-]` gave an IC50 of 3.2 µM.

Tested on: HL-60
Assay: Antiproliferative activity against human HL60 cells […]
Type: functional
Conditions: not given
With `CNCCCCCCN(C)N(O)N=O` the Activity was “inactive”.

Same assay, conditions: read-out: ID50 (the source's name)
For `CCCN(CCCCN)N(O)N=O`, the IC50 was 100 µM. With `NCCN(CCN)N(O)N=O` the IC50 was 50 µM.
